US20250368608A1, “SELECTIVE HDAC6 INHIBITOR” (ROYAL COLLEGE OF SURGEONS IN IRELAND, priority 2021, published 2025)
“Also recorded” adds a separate entry of the source.

How the values were obtained:
acetylated tubulin = assay: Western blot of acetylated tubulin in cells; assay type: cell-based; conditions: increasing doses
Procedure: (§1) Protein samples for Western blot analysis were separated by 12% SDS-PAGE gels. Following separation on the gel, proteins were transferred using electrophoresis onto a nitrocellulose membrane and blocked at room temperature shaking in 5% milk (w/v) in TBS containing 0.5% Tween-20 (TBS-T). Membranes were incubated overnight at 4° C. with primary antibody. HRP tagged secondary antibodies were diluted in TBS-T/5% milk for 1 hr. Antibody reactive bands were detected with LAS-3000, Fujifilm. Fluorescent secondary antibodies were diluted 1:10000 in TBS-T/5% milk for 1 hour. Antibody reactive bands were detected with the Odyssey® infrared imaging system (LI-COR Biosciences). IRDye® 680LT and 800CW-Infrared Dye coupled anti-rabbit or anti-mouse (LI-COR Biosciences).

Histone 4 (H4) = assay: Acetylation of Histone 4 in cells; assay type: cell-based
Procedure: as §1

BT549 cells [1] = assay: Migration and invasion assays (Boyden chamber); assay type: cell-based; conditions: BT549, 30 μM
Procedure: (§2) Cell migration and invasion experiments were performed using the Boyden Chamber Assay (Corning, CLS3464). 500,000 cells were seeded in serum free RPMI media (Thermo Fisher Scientific, 118757093) in the upper chamber and RPMI media containing 10% FBS (Sigma, F2442), was placed in the lower chamber. For invasion experiments the upper chamber was coated with Matrigel™ (Corning). […] Following 24 hrs (migration experiments) or 48 hrs (invasion experiments) treatment cells were stained with 0.5% crystal violet.

MDA231 cells [2] = assay: Migration and invasion assays (Boyden chamber); assay type: cell-based; conditions: MDA231, 30 μM
Procedure: as §2

MDA231 = assay: 3D spheroid formation in Matrigel; assay type: cell-based; conditions: MDA231, 30 μM
Procedure: Individual wells of a 6 well plate was coated with Matrigel™ (Corning) and placed in an incubator at 37° C. for 30 min. 50,000 cells/ml were resuspended in RPMI supplemented with 2% Matrigel™ Cells were placed in Matrigel™ coated wells for 30 min at 37° C., after which RMPI supplemented with 2% Matrigel™ was added to the cultures. […] Cells were maintained in culture for 7 days in an incubator at 37° C., 5% CO2 and cultures imaged every 24 hrs with Nikon ECLIPSE TE300.

[3] = assay type: in vivo; conditions: 50 mg/kg, while on treatment
aldolase [4] = assay: Aldolase activity assay; assay type: cell-based
Procedure: (§3) The activity assay was performed as per the manufacturer's instructions (Aldolase: Biovision, K665, GAPDH: Sigma, MAK277). Values were normalized to protein concentrations and fold change was calculated relative to DMSO.

GAPDH = GAPDH activity assay; assay type: cell-based
Procedure: as §3

aldolase [5] = assay: Immunoprecipitation with acetyl beads; assay type: cell-based; conditions: 10 μM, 24 hr treatment
Procedure: Cell lysates were prepared in lysis buffer (50 mM Tris-HCL PH 7.4, 150 mM NACL, 1% Triton x100, 1 mM EDTA and protease inhibitors). Protein was quantified and 500 μg of protein was added to 20 μl of A-agarose beads (Pierce, 20333) and allowed to rotate for 1 hr at 4° C. and 3000 rpm. Proteins were centrifuged for 3 minutes at 3000 rpm at 4° C. Supernatant was added to 500 μl of lysis buffer, […] pan-specific anti-acetylated lysine beads (Immunechem, ICP0388) or control agarose beads, and made up to 1 ml with dH2O. Samples were rotated overnight at 4° C. at 3000 rpm. Samples were washed with lysis buffer and were resuspended in 30 μl of 2×IP Dye with BME and boiled and ran out on 12% SDS-PAGE gel.

MCF10a cells = assay: Extracellular flux assay (ECAR, glycolysis); assay type: cell-based; conditions: 10 μM, 24 hr
Procedure: (§4) The bioenergetic function of cells in response to drug treatments was determined using a Seahorse Bioscience XF96 Extracellular Flux Analyzer (Seahorse Bioscience). Cells were seeded in specialized V7 Seahorse tissue culture plates (Agilent, 102601-100) for 24 hrs. […] One hr prior to experiment, cells were washed and changed to XF Base medium (Agilent, 10353-100) adjusted to pH 7.4. For OXPHOS experiments medium was supplemented with pyruvate (1 mM), L-glutamine (2 mM) and glucose (10 mM). […] For glycolysis experiments medium was supplemented with L-glutamine (1 mM). […] For all analysis values were normalized to protein concentration before baseline measurements were subtracted. The fold change was calculated relative to DMSO.

MDA231 cells [6] = assay: Extracellular flux assay (ECAR, glycolysis); assay type: cell-based; conditions: MDA231, 10 μM, 24 hr
Procedure: as §4

4T1 cell line = assay: Extracellular flux assay (ECAR, glycolysis); assay type: cell-based, mouse; conditions: 4T1, 24 hrs
Procedure: as §4

MDA231 cells [7] = assay: U-13C6-glucose stable isotope tracing, GC-MS; assay type: cell-based; conditions: MDA231, 10 μM, 24 hrs
Procedure: Cells were seeded in 12-well tissue culture plates and left to adhere overnight. […] Following treatment, media was removed and cells were washed with 1×PBS before adding basic RPMI (Thermo Fisher Scientific, 11879020) supplemented with dialyzed FBS (Gibico 26400044) and either 10 mM of [U]-^13C6 labelled glucose (Cambridge Isotopes CLM-1396) for 30 minutes or tracing media containing 10 mM 1,2-^13C labelled glucose (Cambridge Isotopes CLM-504) for 12 h. Cellular metabolites were extracted after a brief wash with 0.9% ice-cold saline solution using a methanol/water/chloroform extraction method, as previously described (48).
(§5) Metabolite derivitzation using MOX-tBDMS was conducted as previously described (49).
(§6) Derivatized samples were analyzed by GC-MS using a DB-35MS column (30 m×0.25 mm i.d.×0.25 μm) installed in an Agilent 7890B gas chromatograph (GC) interfaced with an Agilent 5977B mass spectrometer as previously described (50) and corrected for natural abundance using in-house algorithms adapted from (51).

MDA231 cells [8] = assay: Metabolite secretion, GC-MS; assay type: cell-based; conditions: MDA231, 10 μM, 24 hrs
Procedure: Media was centrifuged at 1,000×g to pellet cell debris and 5 μL of supernatant was extracted in 80% ice-cold methanol mixture containing isotope-labeled internal standards for lactate (Cayman Chemicals CLM-1579), and pyruvate (Cayman Chemicals CLM-2440) and evaporated to dryness.
as §5, §6

[9] = system: mitochondrial membrane potential; assay: Mitochondrial membrane potential (TMRE); assay type: cell-based; conditions: 10 μM
Procedure: Apoptosis was assessed by Annexin V/propidium iodide (Biolegend, 640906, Sigma P4170) staining using LSRII Biosciences, Facscanto. Cell viability was detected by CellTiter-Glo® (My Bio, G3582) according to the manufacture's protocol. Mitochondrial membrane potential was measured by adding Tetramethylrhodamine, ethyl ester (TMRE) (Biosciences, T669) at 20 nM for 30 minutes at 37° C. and assessed by flow cytometry with FACS CANTO II.

BT549 cells [10] = assay: Extracellular flux assay (OCR); assay type: cell-based; conditions: BT549, 10 μM
Procedure: as §4

MDA-231 cells = assay: Extracellular flux assay (OCR); assay type: cell-based; conditions: MDA-231, 10 μM
Procedure: as §4

4T1 tumors [11] = assay: Tumor metabolites by GC-MS, 4T1 syngeneic breast cancer model; assay type: in vivo, mouse; conditions: 4T1 model
Procedure: Following 7 or 14 days treatment mice was fasted for 6-8 h prior to euthanasia and tumor harvest. Tumor metabolites were extracted in methanol/water/chloroform using the Qiagen TissueLyser LT, evaporated to dryness and resuspended in 80% methanol. The equivalent volume for 5 mg of tissue was further extracted in 80% ice-cold methanol mixture containing isotope-labeled standards for lactate (Cayman Chemicals CLM-1579), and pyruvate (Cayman Chemicals CLM-2440) and evaporated to dryness.
as §5, §6

4T1 tumors [12] = assay: 4T1 syngeneic breast mouse model; conditions: 50 mg/kg, two weeks, 4T1 model
HDAC proteins (HDAC1-9) = assay: HDAC inhibitory assay, isozyme panel; conditions: in vitro HDAC inhibitor screen
MMTV-pyMT tumors = assay: MMTV-pyMT genetic breast mouse model; conditions: 50 mg/kg, two weeks

O=C(CSC1=NC2CCCCC2N1)N1CCOCC1 (stereo not drawn) [BAS-2]
acetylated tubulin level (acetylated tubulin): increase in the acetylated tubulin
acetylation of Histone 4 (H4) (Histone 4 (H4)): did not cause an increase in acetylation of Histone 4
cell migration and invasion (BT549 cells [1]): significant reduction in both cell migration and invasion
cell migration and invasion (MDA231 cells [2]): significant reduction in both cell migration and invasion
3D spheroid formation (MDA231): reduction in 3D spheroid formation
toxicity as assessed by weight of the mice [3]: did not detect any overt evidence of toxicity
aldolase enzymatic activity (aldolase [4]; BT-549 cells): dose-dependent significant reduction in aldolase enzymatic activity
aldolase enzymatic activity (aldolase [4]; MDA231 cells, 24 hrs): dose-dependent significant reduction in aldolase enzymatic activity
GAPDH activity (GAPDH; BT-549): dose dependent reduction in GAPDH activity
GAPDH activity (GAPDH; MDA-231): dose dependent reduction in GAPDH activity
acetylation of aldolase (aldolase [5]): increased the acetylation of aldolase
glycolysis and glycolytic capacity (ECAR) (MCF10a cells): did not affect the glycolysis or glycolytic capacity
glycolytic capacity (ECAR) (MDA231 cells [6]): reduced the glycolytic capacity
glycolysis and glycolytic flux (4T1 cell line): decrease in glycolysis and glycolytic flux
carbon incorporation from glucose into PEP, 3PG, lactate and pyruvate (MDA231 cells [7]): significant reduction in carbon incorporation from glucose
secretion of lactate and pyruvate (MDA231 cells [8]): significant reduction in the secretion of lactate and pyruvate
mitochondrial membrane potential [9]: no loss of mitochondrial membrane potential
OCR, basal respiration and ATP production (BT549 cells [10]): did not observe any significant changes in OCR
OCR, basal respiration and ATP production (MDA-231 cells): did not observe any significant changes in OCR
intratumoral lactate (4T1 tumors [11]): trend towards decreased intratumoral lactate
intratumoral pyruvate levels (4T1 tumors [11]): significant reduction in intratumoral pyruvate levels
tumor weight and tumor volume (4T1 tumors [12]): reduction in tumor weight and tumor volume; also recorded: reduce tumor volume and weight
HDAC isozymes inhibited (HDAC proteins (HDAC1-9)): inhibited only the isozyme HDAC6
tumor volume (MMTV-pyMT tumors): reduction in tumor volume
